Results from patent publication US20250136652A1, “FUSION PROTEIN FOR TARGETING RECOMBINANT PROTEINS FOR DEGRADATION” (The Regents of the University of California, priority 2022, published 2025).

Key:
[1] = tested on: green fluorescent protein (GFP) target; experiment: STUD-induced degradation of GFP target in Jurkat T cells, flow cytometry; format: cell-based; settings: GFP normalized by tagBFP, 72 hours following removal of lentivirus
Method: Jurkat cells were lentivirally transduced with two plasmids. The first encodes a STUD, or control with a mutated degron, and a mCherry transduction marker separated by a 2A element and the second encodes GFP target protein and a BFP transduction marker separated by a 2A element. In the case of the SynZip STUD, the GFP target is fused to a heterodimeric SynZip protein complementary to the binding domain on the STUD. These transduced cells are analyzed for fluorescence by flow cytometry […] after removal of virus. Cells are first gated on these transduction markers to isolate relevant populations. Then, normalized GFP fluorescence is calculated by normalizing each cell's GFP fluorescence, as obtained by flow cytometry, by its BFP fluorescence. Then, the median normalized GFP fluorescence of each flow cytometry distribution is calculated and shown in the bar plot. Each dot represents the mean of the median normalized GFP fluorescence of three technical replicates in three independent experiments. […]
Either the SynZip STUD and the antiGFP nanobody STUD in Jurkat T cells alongside a plasmid encoding either GFP fused to a complementary SynZip or GFP alone, respectively (FIG. 2B) were lentivirally transduced. 72 hours following removal of lentivirus, we assay for GFP fluorescence by flow cytometry. […] Representative histograms of unnormalized GFP fluorescence are also shown for reference. […]

[2] = tested on: 4-1BB variant second-generation ('BBz') CARs that target CD19 or HER2; experiment: Surface CAR expression in Jurkat T cells by anti-myc antibody stain and flow cytometry; format: cell-based; settings: 72 hours after removal of lentivirus
Method: FIG. 4A: Tethering of STUD to plasma membrane allows for functional knockdown for second-generation chimeric antigen receptors (CAR). Cartoon diagram of membrane tethered STUD (‘memSTUD’) and non-functional (‘NF’) control relative to original ‘soluble’ STUD design. The DNA cartoon represents the plasmid used in experiments done in this panel. (RRRG (SEQ ID NO:32); TRGN (SEQ ID NO:50)).
FIG. 4B: Plasmid diagramed in FIG. 4A transduced into Jurkat T cells and CAR fluorescence measured 72 hours removal of lentivirus. CAR fluorescence is measured by antibody stain for myc tag fused to CAR extracellular domain. […] Dots represent three independent experiments and errors bars show standard deviation.
Increasing the local concentration of the STUD at the membrane by fusion to a membrane localization domain was tested. […] The surface CAR expression by fluorescence of this antibody stain was measured by flow cytometry.
Membrane targeting STUD: Membrane targeting cells were introduced by lentiviral transduction of two plasmids. […] Cells were then analyzed by flow cytometry. Cells were gated on expression of co-transduction fluorescent proteins (BFP/mCherry) and STUD efficacy was measured by knockdown of CAR/SynNotch. CAR and SynNotch expression was measured by antibody staining for a peptide tag fused to the extracellular domain of the CAR/SynNotch. […]

Q: How did the “fold change of median normalized GFP fluorescence” value [1] turn out when “SynZip STUD: Fusion protein SEQ ID NO: 413: lysine-free modified synZIP18 heterodimerization domain, flexible linker, C-terminal RRRG degron; 55 amino acids (SIAATLENDLARLENENARLERDIANLERDLARLEREEAYFGSGSGSGSGSRRRG)” was run?
A: approximately 42 fold

Q: What about the “degradation of CAR (surface CAR expression)” value [2] of the same substance?
A: inefficiently
